Measurements reported in ChEMBL document CHEMBL4507276 (2021).

Experiments:
[1] = target: Macrophage colony-stimulating factor 1 receptor (Homo sapiens) (UniProt P07333); conditions: Compound concentration 1000.0 nM
[2] = target: Rho-associated protein kinase 1 (Homo sapiens) (UniProt Q13464); assay: ROCK1 Invitrogen selectivity data (BI); conditions: Compound concentration 3.0 uM
[3] = target: T1, 5-hydroxytryptamine receptor 3A (Homo sapiens) (UniProt P46098); assay: 5HT3/HU Eurofins-Panlabs selectivity data (BI); conditions: Compound concentration 10.0 uM
T1 sequence (whole entry): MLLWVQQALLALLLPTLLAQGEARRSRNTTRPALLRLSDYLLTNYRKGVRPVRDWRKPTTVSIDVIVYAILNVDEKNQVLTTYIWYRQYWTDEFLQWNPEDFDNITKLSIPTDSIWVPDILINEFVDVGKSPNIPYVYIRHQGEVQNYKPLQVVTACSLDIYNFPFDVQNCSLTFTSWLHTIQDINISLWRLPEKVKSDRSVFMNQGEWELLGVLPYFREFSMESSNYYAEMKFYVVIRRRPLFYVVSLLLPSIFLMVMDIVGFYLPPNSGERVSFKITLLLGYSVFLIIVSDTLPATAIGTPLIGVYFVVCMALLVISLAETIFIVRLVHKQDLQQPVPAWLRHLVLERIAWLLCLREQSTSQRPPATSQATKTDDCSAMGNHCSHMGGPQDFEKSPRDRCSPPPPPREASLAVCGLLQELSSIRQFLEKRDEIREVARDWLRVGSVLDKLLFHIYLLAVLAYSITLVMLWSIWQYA

[4] = target: T2, Tyrosine-protein kinase ITK/TSK (Homo sapiens) (UniProt Q08881); assay: ITK Invitrogen selectivity data (BI); conditions: Compound concentration 3.0 uM
T2 sequence (whole entry): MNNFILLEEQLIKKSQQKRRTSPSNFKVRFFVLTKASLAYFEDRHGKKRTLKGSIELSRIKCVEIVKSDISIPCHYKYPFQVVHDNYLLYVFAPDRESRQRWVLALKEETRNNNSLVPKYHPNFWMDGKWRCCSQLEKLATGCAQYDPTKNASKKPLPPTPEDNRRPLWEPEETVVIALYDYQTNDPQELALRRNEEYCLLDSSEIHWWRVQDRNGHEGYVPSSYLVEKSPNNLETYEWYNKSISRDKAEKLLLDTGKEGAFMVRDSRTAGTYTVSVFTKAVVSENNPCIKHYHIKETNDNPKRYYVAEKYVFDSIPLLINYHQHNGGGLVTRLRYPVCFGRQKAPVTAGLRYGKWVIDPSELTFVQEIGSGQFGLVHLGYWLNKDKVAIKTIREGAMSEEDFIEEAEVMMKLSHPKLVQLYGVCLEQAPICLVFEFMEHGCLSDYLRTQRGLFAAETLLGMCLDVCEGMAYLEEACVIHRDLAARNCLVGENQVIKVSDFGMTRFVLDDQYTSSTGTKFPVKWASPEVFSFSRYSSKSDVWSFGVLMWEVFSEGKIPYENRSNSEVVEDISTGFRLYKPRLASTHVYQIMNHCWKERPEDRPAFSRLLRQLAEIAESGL

[5] = target: Adenosine receptor A3 (Homo sapiens) (UniProt P0DMS8); assay: A3/H Eurofins-Panlabs selectivity data (BI); conditions: Compound concentration 10.0 uM
Adenosine receptor A3 (Homo sapiens), sequence (P0DMS8 whole entry): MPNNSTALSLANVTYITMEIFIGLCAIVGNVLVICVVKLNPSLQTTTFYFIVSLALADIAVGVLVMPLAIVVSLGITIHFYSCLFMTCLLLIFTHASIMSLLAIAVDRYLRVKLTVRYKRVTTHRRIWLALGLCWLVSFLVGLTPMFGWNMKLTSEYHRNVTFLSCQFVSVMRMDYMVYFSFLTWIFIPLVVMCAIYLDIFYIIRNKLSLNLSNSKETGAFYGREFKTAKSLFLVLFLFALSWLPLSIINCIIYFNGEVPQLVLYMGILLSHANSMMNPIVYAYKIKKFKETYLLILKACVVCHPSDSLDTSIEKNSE

[6] = target: T3, D(4) dopamine receptor (Homo sapiens) (UniProt P21917); assay: D4.2/H Eurofins-Panlabs selectivity data (BI); conditions: Compound concentration 10.0 uM
T3 sequence (whole entry): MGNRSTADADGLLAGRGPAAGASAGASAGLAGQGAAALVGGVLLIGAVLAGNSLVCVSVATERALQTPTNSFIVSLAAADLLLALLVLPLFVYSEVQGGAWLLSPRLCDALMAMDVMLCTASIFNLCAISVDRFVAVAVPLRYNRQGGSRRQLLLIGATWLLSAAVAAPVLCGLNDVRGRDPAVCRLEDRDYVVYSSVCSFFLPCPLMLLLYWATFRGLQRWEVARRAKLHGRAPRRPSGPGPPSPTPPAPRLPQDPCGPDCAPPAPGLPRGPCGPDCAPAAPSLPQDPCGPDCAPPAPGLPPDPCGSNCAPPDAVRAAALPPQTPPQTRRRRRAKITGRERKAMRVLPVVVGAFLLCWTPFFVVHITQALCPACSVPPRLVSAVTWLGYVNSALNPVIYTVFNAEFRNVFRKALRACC

[7] = test system: Mast/stem cell growth factor receptor Kit (Homo sapiens), P10721 [V654A]; assay: KIT_V654A Invitrogen selectivity data (BI); conditions: Compound concentration 3.0 uM
Mast/stem cell growth factor receptor Kit (Homo sapiens), P10721 [V654A], sequence (P10721 whole entry V654A): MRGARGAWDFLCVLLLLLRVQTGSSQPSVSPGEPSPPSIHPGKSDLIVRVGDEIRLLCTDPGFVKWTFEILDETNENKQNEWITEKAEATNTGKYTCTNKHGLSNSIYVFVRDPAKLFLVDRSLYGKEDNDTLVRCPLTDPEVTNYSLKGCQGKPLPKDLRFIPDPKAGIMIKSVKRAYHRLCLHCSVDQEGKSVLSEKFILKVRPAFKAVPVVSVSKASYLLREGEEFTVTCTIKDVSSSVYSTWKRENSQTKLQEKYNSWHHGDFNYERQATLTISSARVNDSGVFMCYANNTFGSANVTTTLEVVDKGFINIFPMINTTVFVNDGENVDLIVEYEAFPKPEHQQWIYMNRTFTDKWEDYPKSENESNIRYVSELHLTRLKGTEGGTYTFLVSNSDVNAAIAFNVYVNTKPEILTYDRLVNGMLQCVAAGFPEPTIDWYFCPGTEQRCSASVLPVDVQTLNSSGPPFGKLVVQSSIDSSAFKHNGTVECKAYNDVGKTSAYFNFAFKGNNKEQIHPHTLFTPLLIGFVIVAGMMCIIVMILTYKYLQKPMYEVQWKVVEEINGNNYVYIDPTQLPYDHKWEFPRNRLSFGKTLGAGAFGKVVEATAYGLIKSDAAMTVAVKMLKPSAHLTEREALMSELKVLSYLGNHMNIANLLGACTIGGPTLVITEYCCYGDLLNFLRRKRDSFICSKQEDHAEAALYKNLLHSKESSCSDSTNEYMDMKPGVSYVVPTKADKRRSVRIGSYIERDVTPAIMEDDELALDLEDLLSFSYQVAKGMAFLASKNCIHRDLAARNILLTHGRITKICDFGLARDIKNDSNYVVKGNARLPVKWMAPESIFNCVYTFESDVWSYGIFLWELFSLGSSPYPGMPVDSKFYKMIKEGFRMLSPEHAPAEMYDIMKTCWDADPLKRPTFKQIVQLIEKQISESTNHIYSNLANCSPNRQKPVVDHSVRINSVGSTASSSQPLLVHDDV

[8] = target: Melanocyte-stimulating hormone receptor (Mus musculus) (UniProt Q01727); assay: MC1_AGON Cerep selectivity data (BI); conditions: filed as agonist, Compound concentration 20.0 uM
Melanocyte-stimulating hormone receptor (Mus musculus), sequence (Q01727 whole entry, looked up): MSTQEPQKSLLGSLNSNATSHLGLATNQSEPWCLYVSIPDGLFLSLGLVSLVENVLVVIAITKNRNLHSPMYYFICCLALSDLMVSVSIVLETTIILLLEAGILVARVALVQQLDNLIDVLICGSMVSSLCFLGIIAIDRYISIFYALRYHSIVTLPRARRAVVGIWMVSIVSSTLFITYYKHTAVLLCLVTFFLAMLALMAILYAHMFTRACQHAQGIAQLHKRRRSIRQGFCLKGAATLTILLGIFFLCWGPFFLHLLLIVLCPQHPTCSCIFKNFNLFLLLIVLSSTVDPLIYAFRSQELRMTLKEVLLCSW

[9] = target: T4, Ephrin type-A receptor 1 (Homo sapiens) (UniProt P21709); assay: EPHA1 Invitrogen selectivity data (BI); conditions: Compound concentration 3.0 uM
T4 sequence (whole entry): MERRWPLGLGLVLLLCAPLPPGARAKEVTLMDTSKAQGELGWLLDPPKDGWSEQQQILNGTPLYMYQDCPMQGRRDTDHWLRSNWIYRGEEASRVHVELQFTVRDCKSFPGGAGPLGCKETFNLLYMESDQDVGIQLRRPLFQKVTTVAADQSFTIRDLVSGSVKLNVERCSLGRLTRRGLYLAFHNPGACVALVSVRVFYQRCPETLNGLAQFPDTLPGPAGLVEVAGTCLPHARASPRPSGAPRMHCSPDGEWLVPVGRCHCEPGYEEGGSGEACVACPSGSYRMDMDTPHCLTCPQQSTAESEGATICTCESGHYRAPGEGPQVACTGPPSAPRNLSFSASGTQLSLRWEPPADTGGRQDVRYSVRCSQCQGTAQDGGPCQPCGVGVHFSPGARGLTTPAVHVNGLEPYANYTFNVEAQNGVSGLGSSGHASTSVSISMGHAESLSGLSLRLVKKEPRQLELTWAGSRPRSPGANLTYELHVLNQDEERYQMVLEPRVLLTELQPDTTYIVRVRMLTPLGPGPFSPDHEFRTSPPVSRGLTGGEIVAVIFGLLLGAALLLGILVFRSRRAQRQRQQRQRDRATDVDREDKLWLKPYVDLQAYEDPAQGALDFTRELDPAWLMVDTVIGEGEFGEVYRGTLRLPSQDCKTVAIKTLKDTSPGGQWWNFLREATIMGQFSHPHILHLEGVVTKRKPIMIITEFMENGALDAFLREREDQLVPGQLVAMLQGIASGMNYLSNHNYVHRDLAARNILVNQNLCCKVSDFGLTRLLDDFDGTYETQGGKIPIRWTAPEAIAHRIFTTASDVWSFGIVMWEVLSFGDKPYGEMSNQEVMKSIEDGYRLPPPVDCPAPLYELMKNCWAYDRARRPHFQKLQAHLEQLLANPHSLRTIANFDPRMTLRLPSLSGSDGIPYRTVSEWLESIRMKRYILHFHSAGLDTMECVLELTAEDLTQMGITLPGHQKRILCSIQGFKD

Measured: residual activity

Macrophage colony-stimulating factor 1 receptor (Homo sapiens), sequence (P07333 whole entry): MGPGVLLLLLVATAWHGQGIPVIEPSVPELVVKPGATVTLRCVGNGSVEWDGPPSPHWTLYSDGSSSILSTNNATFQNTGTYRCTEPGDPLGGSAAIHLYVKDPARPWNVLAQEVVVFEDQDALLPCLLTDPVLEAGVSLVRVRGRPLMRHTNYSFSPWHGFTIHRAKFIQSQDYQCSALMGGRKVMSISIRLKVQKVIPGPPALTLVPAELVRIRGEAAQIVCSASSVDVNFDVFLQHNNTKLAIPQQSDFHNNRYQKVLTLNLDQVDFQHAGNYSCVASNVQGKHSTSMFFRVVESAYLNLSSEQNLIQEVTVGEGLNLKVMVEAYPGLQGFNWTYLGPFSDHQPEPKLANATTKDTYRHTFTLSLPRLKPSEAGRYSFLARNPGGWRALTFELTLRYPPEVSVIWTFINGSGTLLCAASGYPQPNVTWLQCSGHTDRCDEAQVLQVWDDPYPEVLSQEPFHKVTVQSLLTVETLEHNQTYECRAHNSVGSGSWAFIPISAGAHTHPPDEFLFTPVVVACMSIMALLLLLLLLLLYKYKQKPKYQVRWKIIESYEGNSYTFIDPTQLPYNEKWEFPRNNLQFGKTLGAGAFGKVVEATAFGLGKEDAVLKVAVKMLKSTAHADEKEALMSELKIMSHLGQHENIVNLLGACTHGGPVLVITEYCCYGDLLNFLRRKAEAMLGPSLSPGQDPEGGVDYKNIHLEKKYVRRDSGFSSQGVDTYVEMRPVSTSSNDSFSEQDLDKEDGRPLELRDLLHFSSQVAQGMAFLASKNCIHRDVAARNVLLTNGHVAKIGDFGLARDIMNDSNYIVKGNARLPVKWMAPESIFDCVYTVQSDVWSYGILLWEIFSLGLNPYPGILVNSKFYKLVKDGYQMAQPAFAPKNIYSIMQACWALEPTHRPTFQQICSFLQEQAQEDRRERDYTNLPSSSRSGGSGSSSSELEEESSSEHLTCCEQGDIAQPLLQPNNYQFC
Rho-associated protein kinase 1 (Homo sapiens), sequence (Q13464 2-1354 limits assumed): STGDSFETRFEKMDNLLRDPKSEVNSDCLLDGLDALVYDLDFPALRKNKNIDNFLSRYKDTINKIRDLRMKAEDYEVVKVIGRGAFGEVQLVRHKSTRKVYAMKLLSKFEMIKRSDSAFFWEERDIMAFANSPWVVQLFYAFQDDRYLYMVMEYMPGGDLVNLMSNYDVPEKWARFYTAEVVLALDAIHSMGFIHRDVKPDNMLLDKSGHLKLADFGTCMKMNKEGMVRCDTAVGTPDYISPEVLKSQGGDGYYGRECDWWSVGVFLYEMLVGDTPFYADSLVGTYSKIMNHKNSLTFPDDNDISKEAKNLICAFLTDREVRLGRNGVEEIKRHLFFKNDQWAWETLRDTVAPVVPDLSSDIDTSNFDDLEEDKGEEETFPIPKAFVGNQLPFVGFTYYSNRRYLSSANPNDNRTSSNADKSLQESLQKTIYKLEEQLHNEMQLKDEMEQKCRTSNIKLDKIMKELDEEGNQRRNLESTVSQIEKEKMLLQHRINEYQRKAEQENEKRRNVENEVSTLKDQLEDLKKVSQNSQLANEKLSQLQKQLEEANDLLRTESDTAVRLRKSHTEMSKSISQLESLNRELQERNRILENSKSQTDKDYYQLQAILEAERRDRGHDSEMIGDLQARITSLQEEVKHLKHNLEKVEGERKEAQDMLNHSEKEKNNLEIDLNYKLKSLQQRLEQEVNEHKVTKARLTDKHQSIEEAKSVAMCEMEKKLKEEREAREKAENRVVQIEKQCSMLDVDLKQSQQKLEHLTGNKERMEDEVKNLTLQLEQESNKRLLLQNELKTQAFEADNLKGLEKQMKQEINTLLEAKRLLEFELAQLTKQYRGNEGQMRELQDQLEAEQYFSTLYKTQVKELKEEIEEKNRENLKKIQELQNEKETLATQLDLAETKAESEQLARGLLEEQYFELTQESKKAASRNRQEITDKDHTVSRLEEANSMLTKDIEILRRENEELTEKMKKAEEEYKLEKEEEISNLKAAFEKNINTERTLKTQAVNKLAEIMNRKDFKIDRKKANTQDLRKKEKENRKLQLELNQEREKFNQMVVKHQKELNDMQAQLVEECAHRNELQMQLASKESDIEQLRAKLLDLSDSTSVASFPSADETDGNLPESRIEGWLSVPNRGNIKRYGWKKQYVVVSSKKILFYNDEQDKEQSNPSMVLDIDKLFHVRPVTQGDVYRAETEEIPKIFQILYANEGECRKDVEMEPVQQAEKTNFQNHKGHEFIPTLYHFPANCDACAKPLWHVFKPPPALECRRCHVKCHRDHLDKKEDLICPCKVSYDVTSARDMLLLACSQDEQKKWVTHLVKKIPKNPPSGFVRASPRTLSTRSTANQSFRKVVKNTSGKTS

CN(C)C(=O)Cn1cc(-c2nc(C3(c4ccc(-c5cnc(N)nc5)cc4)CC3)no2)cn1 [BI 0153]
inactive: [1] 100%

CN(C)C(=O)Cn1cc(-c2nc([C@@](C)(c3ccc(-c4cnc(N)nc4)cc3)C3CC3)no2)cn1 [BI 665915]
inactive: [2] 99.5% | [3] 102% | [4] 94% | [5] 88% | [6] 98% | [7] 95% | [8] 101% | [9] 89%
